Results: PubChem BioAssay (NCI)
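Exposure lasted 48 hours, with cells grown in 96-well plates and compounds tested at five concentrations. GI50 marks 50% less growth. TGI: concentration producing complete growth inhibition.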

Experiments:
Assay in all cases: NCI tumour cell line growth inhibition, 48 h
SW-620 colon = test system: SW-620 colon
OVCAR-3 ovarian = test system: OVCAR-3 ovarian
SNB-19 CNS = test system: SNB-19 CNS
UACC-62 melanoma = test system: UACC-62 melanoma
A549 NSCLC = test system: A549 NSCLC
TK-10 renal = test system: TK-10 renal
RPMI-8226 leukemia = test system: RPMI-8226 leukemia
SF-295 CNS = test system: SF-295 CNS
HOP-62 NSCLC = test system: HOP-62 NSCLC
HCC-2998 colon = test system: HCC-2998 colon
MDA-MB-231 breast = test system: MDA-MB-231 breast
OVCAR-5 ovarian = test system: OVCAR-5 ovarian
RXF 393 renal = test system: RXF 393 renal
UO-31 renal = test system: UO-31 renal
SK-MEL-28 melanoma = test system: SK-MEL-28 melanoma
HL-60(TB) leukemia = test system: HL-60(TB) leukemia
SNB-75 CNS = test system: SNB-75 CNS
KM12 colon = test system: KM12 colon
M14 melanoma = test system: M14 melanoma
NCI-H460 lung = test system: NCI-H460 lung
U251 CNS = test system: U251 CNS
PC-3 prostate = test system: PC-3 prostate
SF-539 CNS = test system: SF-539 CNS
EKVX NSCLC = test system: EKVX NSCLC
SK-MEL-2 melanoma = test system: SK-MEL-2 melanoma
NCI/ADR-RES ovarian = test system: NCI/ADR-RES ovarian
NCI-H522 lung = test system: NCI-H522 lung
NCI-H23 lung = test system: NCI-H23 lung
HCT-15 colon = test system: HCT-15 colon
SK-MEL-5 melanoma = test system: SK-MEL-5 melanoma
HOP-92 NSCLC = test system: HOP-92 NSCLC
786-0 renal = test system: 786-0 renal
HS 578T breast = test system: HS 578T breast
BT-549 breast = test system: BT-549 breast
OVCAR-8 ovarian = test system: OVCAR-8 ovarian
SK-OV-3 ovarian = test system: SK-OV-3 ovarian
SF-268 CNS = test system: SF-268 CNS
NCI-H226 lung = test system: NCI-H226 lung
MOLT-4 leukemia = test system: MOLT-4 leukemia
MDA-MB-435 = test system: MDA-MB-435
COLO 205 colon = test system: COLO 205 colon
MALME-3M melanoma = test system: MALME-3M melanoma
HT29 colon = test system: HT29 colon
ACHN renal = test system: ACHN renal
HCT-116 colon = test system: HCT-116 colon
SR leukemia = test system: SR leukemia
K-562 leukemia = test system: K-562 leukemia
UACC-257 melanoma = test system: UACC-257 melanoma
CAKI-1 renal = test system: CAKI-1 renal
CCRF-CEM leukemia = test system: CCRF-CEM leukemia
IGROV1 ovarian = test system: IGROV1 ovarian
MCF7 breast = test system: MCF7 breast
OVCAR-4 ovarian = test system: OVCAR-4 ovarian
SN12C renal = test system: SN12C renal
DU-145 prostate = test system: DU-145 prostate
A498 renal = test system: A498 renal

## O=S(=O)(O)c1ccc(N=Nc2ccc(N=Nc3c(O)ccc4cc(S(=O)(=O)O)ccc34)cc2)cc1
SW-620 colon
  TGI: > 100 µM
OVCAR-3 ovarian
  TGI: > 100 µM
SNB-19 CNS
  TGI: > 100 µM
UACC-62 melanoma
  TGI: > 100 µM
A549 NSCLC
  TGI: > 100 µM
TK-10 renal
  TGI: > 100 µM
RPMI-8226 leukemia
  TGI: > 100 µM
SF-295 CNS
  TGI: > 100 µM
HOP-62 NSCLC
  TGI: > 100 µM
HCC-2998 colon
  TGI: > 100 µM
MDA-MB-231 breast
  TGI: > 100 µM
OVCAR-5 ovarian
  TGI: > 100 µM
RXF 393 renal
  TGI: > 100 µM
UO-31 renal
  TGI: > 100 µM
SK-MEL-28 melanoma
  TGI: > 100 µM
HL-60(TB) leukemia
  TGI: > 100 µM
SNB-75 CNS
  TGI: > 100 µM
KM12 colon
  TGI: > 100 µM
M14 melanoma
  TGI: > 100 µM
NCI-H460 lung
  TGI: > 100 µM
U251 CNS
  TGI: > 100 µM
PC-3 prostate
  TGI: > 100 µM
SF-539 CNS
  TGI: > 100 µM
EKVX NSCLC
  TGI: > 100 µM
SK-MEL-2 melanoma
  TGI: > 100 µM
NCI/ADR-RES ovarian
  TGI: > 100 µM
NCI-H522 lung
  TGI: > 100 µM
NCI-H23 lung
  TGI: > 100 µM
HCT-15 colon
  TGI: > 100 µM
SK-MEL-5 melanoma
  TGI: > 100 µM
HOP-92 NSCLC
  TGI: > 100 µM
786-0 renal
  TGI: > 100 µM
HS 578T breast
  TGI: > 100 µM
BT-549 breast
  TGI: > 100 µM
OVCAR-8 ovarian
  TGI: > 100 µM
SK-OV-3 ovarian
  TGI: > 100 µM
SF-268 CNS
  TGI: > 100 µM
NCI-H226 lung
  TGI: > 100 µM
MOLT-4 leukemia
  TGI: > 100 µM
MDA-MB-435
  TGI: > 100 µM
COLO 205 colon
  TGI: > 100 µM
MALME-3M melanoma
  TGI: > 100 µM
HT29 colon
  TGI: > 100 µM
ACHN renal
  TGI: > 100 µM
HCT-116 colon
  TGI: > 100 µM
SR leukemia
  TGI: > 100 µM
K-562 leukemia
  TGI: > 100 µM
UACC-257 melanoma
  TGI: > 100 µM
CAKI-1 renal
  TGI: > 100 µM
CCRF-CEM leukemia
  TGI: > 100 µM
IGROV1 ovarian
  TGI: > 100 µM
MCF7 breast
  TGI: > 100 µM

## Cc1ccc(O)c(N=Nc2c(O)cc(S(=O)(=O)O)c3ccccc23)c1
SW-620 colon
  TGI: > 100 µM
OVCAR-3 ovarian
  TGI: 76.2 µM
UACC-62 melanoma
  TGI: > 100 µM
A549 NSCLC
  TGI: > 100 µM
TK-10 renal
  TGI: > 100 µM
RPMI-8226 leukemia
  TGI: > 100 µM
OVCAR-4 ovarian
  TGI: > 100 µM
SF-295 CNS
  TGI: > 100 µM
HOP-62 NSCLC
  TGI: > 100 µM
HCC-2998 colon
  TGI: > 100 µM
MDA-MB-231 breast
  TGI: > 100 µM
OVCAR-5 ovarian
  TGI: > 100 µM
RXF 393 renal
  TGI: > 100 µM
UO-31 renal
  TGI: 79.6 µM
SK-MEL-28 melanoma
  TGI: > 100 µM
HL-60(TB) leukemia
  TGI: 64 µM
KM12 colon
  TGI: > 100 µM
M14 melanoma
  TGI: > 100 µM
NCI-H460 lung
  TGI: > 100 µM
U251 CNS
  TGI: > 100 µM
PC-3 prostate
  TGI: > 100 µM
SF-539 CNS
  TGI: > 100 µM
EKVX NSCLC
  TGI: > 100 µM
SK-MEL-2 melanoma
  TGI: > 100 µM
NCI/ADR-RES ovarian
  TGI: 86.5 µM
HCT-15 colon
  TGI: > 100 µM
SK-MEL-5 melanoma
  TGI: 77.6 µM
HOP-92 NSCLC
  TGI: > 100 µM
786-0 renal
  TGI: > 100 µM
HS 578T breast
  TGI: > 100 µM
BT-549 breast
  TGI: > 100 µM
OVCAR-8 ovarian
  TGI: > 100 µM
SK-OV-3 ovarian
  TGI: > 100 µM
SF-268 CNS
  TGI: > 100 µM
NCI-H226 lung
  TGI: > 100 µM
MOLT-4 leukemia
  TGI: 95.3 µM
MDA-MB-435
  TGI: > 100 µM
COLO 205 colon
  TGI: > 100 µM
MALME-3M melanoma
  TGI: > 100 µM
HT29 colon
  TGI: > 100 µM
ACHN renal
  TGI: > 100 µM
HCT-116 colon
  TGI: 62.5 µM
SR leukemia
  TGI: > 100 µM
K-562 leukemia
  TGI: > 100 µM
UACC-257 melanoma
  TGI: > 100 µM
CAKI-1 renal
  TGI: > 100 µM
CCRF-CEM leukemia
  TGI: > 100 µM
IGROV1 ovarian
  TGI: > 100 µM
MCF7 breast
  TGI: > 100 µM

## CCOC(=O)c1cc(C(=O)c2ccc(Cl)cc2)n2ccc(-c3cc[n+](CC(=O)c4ccc(OC)cc4)cc3)cc12
SW-620 colon
  GI50: 1.38 µM
  TGI: 3.27 µM
OVCAR-3 ovarian
  GI50: 1.88 µM
  TGI: 3.65 µM
SNB-19 CNS
  GI50: 1.83 µM
  TGI: 3.73 µM
UACC-62 melanoma
  GI50: 1.82 µM
  TGI: 3.52 µM
TK-10 renal
  GI50: 1.76 µM
  TGI: 3.37 µM
OVCAR-4 ovarian
  GI50: 1.68 µM
  TGI: 3.4 µM
SF-295 CNS
  GI50: 1.7 µM
  TGI: 3.32 µM
MDA-MB-231 breast
  GI50: 1.59 µM
  TGI: 3.25 µM
OVCAR-5 ovarian
  GI50: 1.82 µM
  TGI: 3.69 µM
RXF 393 renal
  GI50: 1.4 µM
  TGI: 3.03 µM
UO-31 renal
  GI50: 1.47 µM
  TGI: 2.99 µM
SK-MEL-28 melanoma
  GI50: 1.89 µM
  TGI: 3.74 µM
SNB-75 CNS
  GI50: 1.47 µM
  TGI: 3.09 µM
SN12C renal
  GI50: 1.83 µM
  TGI: 3.59 µM
U251 CNS
  GI50: 1.7 µM
  TGI: 3.54 µM
SF-539 CNS
  GI50: 1.68 µM
  TGI: 3.27 µM
EKVX NSCLC
  GI50: 1.69 µM
  TGI: 3.5 µM
DU-145 prostate
  GI50: 1.69 µM
  TGI: 3.2 µM
SK-MEL-2 melanoma
  GI50: 2.04 µM
  TGI: 4.36 µM
NCI/ADR-RES ovarian
  GI50: 3.16 µM
  TGI: 33 µM
NCI-H522 lung
  GI50: 1.93 µM
  TGI: 3.89 µM
NCI-H23 lung
  GI50: 1.84 µM
  TGI: 3.74 µM
HCT-15 colon
  GI50: 1.64 µM
  TGI: 3.6 µM
SK-MEL-5 melanoma
  GI50: 1.77 µM
  TGI: 3.42 µM
HOP-92 NSCLC
  GI50: 1.49 µM
  TGI: 3.17 µM
A498 renal
  GI50: 1.6 µM
  TGI: 3.17 µM
HS 578T breast
  GI50: 1.81 µM
  TGI: 4.38 µM
SK-OV-3 ovarian
  GI50: 2.01 µM
  TGI: 3.62 µM
MDA-MB-435
  GI50: 1.86 µM
  TGI: 3.67 µM
MALME-3M melanoma
  GI50: 2.01 µM
  TGI: 3.98 µM
ACHN renal
  GI50: 1.78 µM
  TGI: 3.31 µM
UACC-257 melanoma
  GI50: 2.21 µM
  TGI: 4.53 µM
MCF7 breast
  GI50: 1.4 µM
  TGI: 3.36 µM
